Data: article PMC3690700 (Journal of nuclear medicine : official publication, Society …, 2008)
Where “and” joins values, the source holds several entries; their conditions need not be identical. Identical values can stand only once. Marks after values point to notes of the source that are not given here.

Key:
[1] = humans, ref personal communication Dr. U. Elben, Aväant Pharmaceuticals; cited from earlier work
[2] = Single i.v. dose of tariquidar in humans; format: in vivo; conditions: single i.v. dose of 2 mg/kg, from Cmax
[3] = humans, single i.v. dose of 2 mg/kg, cited from earlier work
[4] = tested on: P-gp; conditions: mice, P-gp substrate loperamide, conventional biodistribution; cited from earlier work
[5] = tested on: P-gp at the BBB
[6] = tested on: P-gp at the BBB; experiment: in vivo; conditions: Wistar Unilever, rat
[7] = tested on: P-gp; conditions: read-out: half-maximum inhibition constant (IC50); substrate transport by P-gp in vitro; cited from earlier work
[8] = Metabolism of; conditions: tariquidar 15 mg/kg i.v.
[9] = 2T4K model, tariquidar 15 mg/kg i.v. 2 h before PET scan (n=5)
[10] = 2T4K model, with vs without tariquidar 15 mg/kg i.v.

unbound concentration [2]: about 0.012 μM
ED50 at 2 h [6]: 8.4 ± 9.5 mg/kg
Effect of tariquidar administration on metabolism of (R)-11C-verapamil [8]: essentially left unaffected
Compound: COc1cc2c(cc1OC)CN(CCc1ccc(NC(=O)c3cc(OC)c(OC)cc3NC(=O)c3cnc4ccccc4c3)cc1)CC2 [tariquidar]
bound to plasma proteins [1]: 99.5%
Tolerability [3]: well tolerated
Cmax ([3]; read-out: maximum plasma concentrations (Cmax)): ~2300 nM
ED50 [4]: 5.6 mg/kg
Increase of K1 after tariquidar, 1T2K model ([5]; 1T2K model, tariquidar treatment): +632%
DV of (R)-11C-verapamil with tariquidar [5, 9]: 3.68±0.81 mL·mL^−1 and 3.68±0.81 (3) mL·mL^−1
K1 of (R)-11C-verapamil with tariquidar [5, 9]: 0.58±0.20 (9) mL·mL^−1·min^−1
k2 of (R)-11C-verapamil with tariquidar [5, 9]: 0.27±0.07 (43) min^−1
k3 of (R)-11C-verapamil with tariquidar [5, 9]: 0.37±0.17 (66) min^−1
k4 of (R)-11C-verapamil with tariquidar [5, 9]: 0.66±0.49 (55) min^−1
Relative change of k2 [5, 10]: −23%
Relative change of k3 [5, 10]: +27%
Relative change of k4 [5, 10]: −9%
DV (Logan) of (R)-11C-verapamil with tariquidar ([5]; Logan analysis, tariquidar 15 mg/kg i.v. 2 h before PET scan (n=5)): 3.53±0.79 (1) mL·mL^−1
Relative change of DV (Logan) ([5]; Logan analysis, with vs without tariquidar 15 mg/kg i.v.): +1,007^† %
Emax ([5]; maximum effect (DV) of dose-response fit, estimate±asymptotic standard error): 4.5±3.8
Time of peak uptake of activity in brain after tariquidar injection ([5]; scan 2, 0-90 min after tariquidar 15 mg/kg i.v.): 32 ± 5 min
Brain uptake of activity after tariquidar vs baseline PET scans ([5]; tariquidar 15 mg/kg): about 12 fold
Increase of DV of (R)-11C-verapamil after tariquidar vs baseline ([5]; tariquidar 15 mg/kg i.v., rat brain): 12 fold
IC50 [7]: 40 nM and ~40 nM
